# Measurements: US12540161B2, “Linkers” (BicycleTx Limited, priority 2020, dated 2026)
# Columns and labels:
# Cathepsin B = Cathepsin B (Homo sapiens, UniProt P07858); experiment: Cathepsin B (CatB) cleavage assay; assay type: biochemical; conditions: for % Parent remaining after incubation with CatB, T = 1 h / % Parent remaining after incubation with CatB, T = 4 h / % Parent remaining after incubation with CatB, T = 24 h: norfloxacin linker compounds; for % Parent remaining after incubation with CatB, 0 h / % Parent remaining after incubation with CatB, 1 h / % Parent remaining after incubation with CatB, 2 h / % Parent remaining after incubation with CatB, 4 h / % Parent remaining after incubation with CatB, 6 h / % Parent remaining after incubation with CatB, 24 h / half-life at 40 μM: BTCs; for half-life at 40 μM: read-out: CatB t1/2 (converted)
# Method: 15 μL of test compound solution (2 mM in DMSO) was added to the incubation plate in duplicate. 30 μL of Cathepsin B stock solution (16 μM) was pre-activated with 1500 μL activation buffer for 10 min at room temperature. The Cathepsin B solution was diluted in 13.17 mL water, then 735 μL activatived enzyme mixture was added to the incubation plate. The mixture was incubated at 37° C. in a waterbath. […] The samples were mixed and centrifuged at 4000 rpm for 20 min. 50 μL of supernatant was taken into a new plate containing 150 μL ultra-pure water and the samples mixed thoroughly before submitting to LC-MS/MS analysis.
# in vitro = conditions: for fold increase in half-life vs Cit-Val: 2 μM; for half-life at 2 μM: plasma
# Method: Pooled frozen plasma was thawed in a water bath at 37° C. Plasma was centrifuged at 4000 rpm for 5 min and the clots were removed if any. The pH will be adjusted to 7.4±0.1 if required. 1 mM stock solution was prepared with DMSO. Propantheline (positive control) was prepared by making a 100 μM working solution by diluting 5 μL of the stock solution (10 mM) with 495 μL ultra pure water. 100 μM working solutions of test compounds were made up by diluting 10 μL of the stock solution (1 mM) with 90 μL DMSO. 98 μL of blank plasma was spiked with 2 μL of dosing solution (100 μM) to achieve 2 μM of the final concentration in duplicate and samples were incubated at 37° C. in a water bath. […] An aliquot of supernatant (150 μL) was transferred from each well before submitting for LC-MS/MS analysis.
# The % remaining test compound after incubation in plasma was calculated using following equation: Remaining=100×(PAR at appointed incubation time/PAR at T0 time)
# where PAR is the peak area ratio of analyte versus internal standard (IS).
# The half-life (T½) was calculated from a log linear plot of concentration versus time.
# [1] = pH 7.4, Mouse plasma t1/2 (EDTA), BTCs, EDTA anticoagulant
SMILES,"% Parent remaining after incubation with CatB, T = 1 h (Cathepsin B) [%]","% Parent remaining after incubation with CatB, T = 4 h (Cathepsin B) [%]","% Parent remaining after incubation with CatB, T = 24 h (Cathepsin B) [%]","fold increase in half-life vs Cit-Val (in vitro; mouse, pH 7.4) [fold]","half-life at 2 μM (in vitro; mouse, pH 7.4) [h]","% Parent remaining after incubation with CatB, 0 h (Cathepsin B) [%]","% Parent remaining after incubation with CatB, 1 h (Cathepsin B) [%]","% Parent remaining after incubation with CatB, 2 h (Cathepsin B) [%]","% Parent remaining after incubation with CatB, 4 h (Cathepsin B) [%]","% Parent remaining after incubation with CatB, 6 h (Cathepsin B) [%]","% Parent remaining after incubation with CatB, 24 h (Cathepsin B) [%]",half-life at 40 μM (Cathepsin B) [h],"half-life at 2 μM (in vitro; pH 7.4, Mouse plasma t1/2 expt 2 (EDTA), BTCs, EDTA anticoagulant, experiment 2) [h]",half-life at 2 μM (in vitro; [1]) [h]
CCn1cc(C(=O)O)c(=O)c2cc(F)c(N3CCN(C(=O)OCc4ccc(NC(=O)[C@H](CCNC(=N)N)NC(=O)[C@@H](NC(=O)[C@H](CCC(=O)O)NC(=O)CCCC(=O)N(C)C)C(C)C)cc4)CC3)cc21 [BCY9695],0,0,0,34.1,14.3,–,–,–,–,–,–,–,–,–
CCn1cc(C(=O)O)c(=O)c2cc(F)c(N3CCN(C(=O)OCc4ccc(NC(=O)[C@H](CN)NC(=O)[C@@H](NC(=O)CCCC(=O)N(C)C)C(C)C)cc4)CC3)cc21 [BCY10298],92,63,6,6.5,2.6,–,–,–,–,–,–,–,–,–
"CC[C@H](C)[C@@H]([C@@H](CC(=O)N1CCC[C@H]1[C@H](OC)[C@@H](C)C(=O)N[C@H](C)[C@@H](O)c1ccccc1)OC)N(C)C(=O)[C@@H](NC(=O)[C@H](C(C)C)N(C)C(=O)OCc1ccc(NC(=O)[C@H](CCN)NC(=O)[C@@H](NC(=O)Cn2cc(CCC(=O)NCCC(=O)N(C)CC(=O)N(C)CC(=O)N(C)CC(=O)N(C)CC(=O)N(C)CC(=O)N(C)CC(=O)N(C)CC(=O)N(C)CC(=O)N(C)CC(=O)N(C)CC(=O)N[C@@H](C)C(=O)N[C@H]3CN(C)Cc4cc5cc(c4)CN(C)C[C@@H](C(N)=O)NC(=O)[C@H](C(C)(C)C)NC(=O)[C@H](CC(=O)O)NC(=O)[C@H](Cc4ccc(O)cc4)NC(=O)[C@H](Cc4ccccc4)NC(=O)[C@H](CC(=O)O)NC(=O)[C@H](CCC(=O)O)NC(=O)[C@H](CSC5)NC(=O)[C@@H](C)NC(=O)[C@H](Cc4cccc5ccccc45)NC(=O)[C@H](CCC(=O)O)NC(=O)[C@H](CC(N)=O)NC(=O)[C@@H](C)NC3=O)nn2)C(C)C)cc1)C(C)C [BCY10989, MMAE-PAB-(Dab-Val)-BCY3900]",–,–,–,–,–,100,89.4,60.7,40.4,23.2,12.8,2.8,30.8,–
CCn1cc(C(=O)O)c(=O)c2cc(F)c(N3CCN(C(=O)OCc4ccc(NC(=O)[C@H](CN)NC(=O)[C@@H](NC(=O)[C@H](CCC(=O)O)NC(=O)CCCC(=O)N(C)C)C(C)C)cc4)CC3)cc21 [BCY10297],75,15,0,19.3,15.5,–,–,–,–,–,–,–,–,–
CCn1cc(C(=O)O)c(=O)c2cc(F)c(N3CCN(C(=O)OCc4ccc(NC(=O)[C@H](CNC(=N)N)NC(=O)[C@@H](NC(=O)CCCC(=O)N(C)C)C(C)C)cc4)CC3)cc21 [BCY10300],72,10,0,3.4,1.4,–,–,–,–,–,–,–,–,–
CCn1cc(C(=O)O)c(=O)c2cc(F)c(N3CCN(C(=O)OCc4ccc(NC(=O)[C@H](CCCNC(N)=O)NC(=O)[C@@H](NC(=O)[C@H](CCC(=O)O)NC(=O)CCCC(=O)N(C)C)C(C)C)cc4)CC3)cc21 [BCY9696],0,0,0,25.1,10.8,–,–,–,–,–,–,–,–,–
CCn1cc(C(=O)O)c(=O)c2cc(F)c(N3CCN(C(=O)OCc4ccc(NC(=O)[C@H](CCNC(=N)NC)NC(=O)[C@@H](NC(=O)CCCC(=O)N(C)C)C(C)C)cc4)CC3)cc21 [BCY9477],0,0,0,6.3,2.5,–,–,–,–,–,–,–,–,–
"CC[C@H](C)[C@@H]([C@@H](CC(=O)N1CCC[C@H]1[C@H](OC)[C@@H](C)C(=O)N[C@H](C)[C@@H](O)c1ccccc1)OC)N(C)C(=O)[C@@H](NC(=O)[C@H](C(C)C)N(C)C(=O)OCc1ccc(NC(=O)[C@H](CN)NC(=O)[C@@H](NC(=O)[C@H](CCC(=O)O)NC(=O)Cn2cc(CCC(=O)NCCC(=O)N(C)CC(=O)N(C)CC(=O)N(C)CC(=O)N(C)CC(=O)N(C)CC(=O)N(C)CC(=O)N(C)CC(=O)N(C)CC(=O)N(C)CC(=O)N(C)CC(=O)N[C@@H](C)C(=O)N[C@H]3CN(C)Cc4cc5cc(c4)CN(C)C[C@@H](C(N)=O)NC(=O)[C@H](C(C)(C)C)NC(=O)[C@H](CC(=O)O)NC(=O)[C@H](Cc4ccc(O)cc4)NC(=O)[C@H](Cc4ccccc4)NC(=O)[C@H](CC(=O)O)NC(=O)[C@H](CCC(=O)O)NC(=O)[C@H](CSC5)NC(=O)[C@@H](C)NC(=O)[C@H](Cc4cccc5ccccc45)NC(=O)[C@H](CCC(=O)O)NC(=O)[C@H](CC(N)=O)NC(=O)[C@@H](C)NC3=O)nn2)C(C)C)cc1)C(C)C [BCY10982, MMAE-PAB-(Dap-Val-Glu)-BCY3900]",–,–,–,–,–,100,85.435,82.3,73.1,72.3,73.91,> 57.8,–,55.9
"CC[C@H](C)[C@@H]([C@@H](CC(=O)N1CCC[C@H]1[C@H](OC)[C@@H](C)C(=O)N[C@H](C)[C@@H](O)c1ccccc1)OC)N(C)C(=O)[C@@H](NC(=O)[C@H](C(C)C)N(C)C(=O)OCc1ccc(NC(=O)[C@H](CCN)NC(=O)[C@@H](NC(=O)[C@H](CCC(=O)O)NC(=O)Cn2cc(CCC(=O)NCCC(=O)N(C)CC(=O)N(C)CC(=O)N(C)CC(=O)N(C)CC(=O)N(C)CC(=O)N(C)CC(=O)N(C)CC(=O)N(C)CC(=O)N(C)CC(=O)N(C)CC(=O)N[C@@H](C)C(=O)N[C@H]3CN(C)Cc4cc5cc(c4)CN(C)C[C@@H](C(N)=O)NC(=O)[C@H](C(C)(C)C)NC(=O)[C@H](CC(=O)O)NC(=O)[C@H](Cc4ccc(O)cc4)NC(=O)[C@H](Cc4ccccc4)NC(=O)[C@H](CC(=O)O)NC(=O)[C@H](CCC(=O)O)NC(=O)[C@H](CSC5)NC(=O)[C@@H](C)NC(=O)[C@H](Cc4cccc5ccccc45)NC(=O)[C@H](CCC(=O)O)NC(=O)[C@H](CC(N)=O)NC(=O)[C@@H](C)NC3=O)nn2)C(c2ccccc2)c2ccccc2)cc1)C(C)C [BCY10987, MMAE-PAB-(Dab-Dpa-Glu)-BCY3900]",–,–,–,–,–,100,104.27,90.6,90.2,94,91.48,> 57.8,–,> 57.8
CCn1cc(C(=O)O)c(=O)c2cc(F)c(N3CCN(C(=O)OCc4ccc(NC(=O)[C@H](CCN)NC(=O)[C@@H](NC(=O)[C@H](CCC(=O)O)NC(=O)CCCC(=O)N(C)C)C(C)C)cc4)CC3)cc21 [BCY10122],0,0,0,107.5,39,–,–,–,–,–,–,–,–,–
CCn1cc(C(=O)O)c(=O)c2cc(F)c(N3CCN(C(=O)OCc4ccc(NC(=O)[C@H](CCN)NC(=O)[C@@H](NC(=O)CCCC(=O)N(C)C)C(C)C)cc4)CC3)cc21 [BCY9474],0.3,0,0,10.8,4.3,–,–,–,–,–,–,–,–,–
